Data set [1] can be described thus: Oral absorption of resveratrol with sucrose laurate; blood levels in volunteers. In kind it is in vivo, human. Particulars: oral gelatin capsules, admixed with 5% w/w sucrose laurate. As to the method: Resveratrol was obtained from RevGenetics, Miami, Fla., as 300 mg gel capsules. Capsules were opened by carefully separating the two halves. The contents were combined and admixed with 5% w/w food grade sucrose laurate alkylsaccharide (Ryoto Sugar Ester M-1216, Mitsubishi-Kagaku Tokyo, Japan). Gelatin capsules were filled with the admixture and administered to volunteers. Blood samples are collected and resveratrol levels are measured by the method of Soleas et al. (Methods Enzymol 335: 130-45 (2001)). The resveratrol blood levels obtained following oral administration with sucrose laurate are at least 20% higher than those obtained in the absence of sucrose laurate.

The conditions of data set [2]: mouse, in vivo.
Description: (§1) Doses of 1 mg each were also administered to mice by the IP, SC and IM routes in solutions containing 0.18% tetradecyl beta-D-maltoside and compared to administration by oral gavage in a solution containing 0.3% (3 mg/mL wt/vol) of tetradecyl-beta-D-maltoside.
(§2) Six week-old male Swiss Webster mice weighing approximately 30 gm were maintained at a constant temperature (24 C) with lights on from 07:00 to 19:00 h, and allowed food and water ad libitum until used for uptake studies. […] For sc, im, and ip delivery, the peptide was dissolved in sterile phosphate buffered saline (PBS, pH 7.2) at a concentration of 1 mg/200 μL as described previously containing 0.18% tetradecyl-beta-D-maltoside. For oral gavage [D-Leu-4]OB3 was dissolved in 0.3% dodecyl-beta-D-maltoside reconstituted in PBS (pH 7.2) at a concentration of 1 mg/200 μL. […]
(§3) The [D-Leu-4]OB3 competitive ELISA assay was carried out as follows. […] Absorbance was read at 405 nm with a Molecular Devices microplate reader (MDS Sciex, Concord, Ontario Canada). […] The relative bioavailability was determined by plotting the serum concentrations of mouse [D-Leu-4]OB3 vs. time following ip, sc, or im delivery using the graphics program SigmaPlot™ 8.0 (SPSS Science, Chicago, Ill., USA). The area under each curve (AUC) was calculated with a function of this program.
The nature of a further data set: in vivo. Particulars: male, Swiss Webster, mouse, po, 1 mg.
A short description of data set [3]: Oral absorption of calcium with alkylsaccharide; blood levels in volunteers. It counts as in vivo, human. Particulars: oral gelatin capsules, calcium citrate admixed with 3% dodecyl maltoside. As to the method:
Calcium citrate is obtained from General Nutrition Corp. as 1000 mg tablets. The tablets are ground in a mortar and pestle until a fine uniform powder is created. The powder is admixed with 3% dodecyl maltoside, pharmaceutical grade (Inalco Chemical Co., Milan Italy) and filled into gelatin capsules, size #000-25 mm length (Capsuline, Pompano Beach, Fla.) and administered to volunteers. Blood samples are collected and calcium levels are measured by commercial clinical laboratory. The calcium blood levels obtained following oral administration with dodecyl maltoside are seen to be at least 20% higher than those obtained in the absence of dodecyl maltoside.

Where a SMILES comes first, the peptide text is derived from it. [ ]: non-standard residue; d: D form.

Description for in vivo: as §1, §2, §3

For the molecule `Oc1ccc(C=Cc2cc(O)cc(O)c2)cc1` [Resveratrol], the “resveratrol blood levels, increase versus absence of sucrose laurate” value in data set [1] was “at least 20%”.
For the molecule `CC(C)C[C@@H](NC(=O)[C@H](CO)NC(=O)[C@H](CS)NC(=O)[C@@H](N)CO)C(=O)N1CCC[C@H]1C(=O)N[C@@H](CCC(N)=O)C(=O)N[C@H](C(N)=O)[C@@H](C)O` [[D-Leu-4]OB3, Ser-Cys-Ser-D-Leu-Pro-Gln-Thr] (H-SCS[dL]PQT-NH2; N-terminus assumed), the “Relative Oral Bioavailability Compared to Three Injection Modes (% of AUC achieved by each respective injection)” value in data set [2] is recorded as 37.8% of IM AUC. Further, in “in vivo”, the F rel was found to be 47.3%.
For the molecule `O=C([O-])CC(O)(CC(=O)[O-])C(=O)[O-].O=C([O-])CC(O)(CC(=O)[O-])C(=O)[O-].[Ca+2].[Ca+2].[Ca+2]` [Calcium citrate], in data set [3], the “calcium blood levels, increase versus absence of dodecyl maltoside” value is reported as “at least 20%”.

Values taken from US20120070487A1, “ALKYLSACCHARIDE COMPOSITIONS WITH NUTRACEUTICALS” (AEGIS THERAPEUTICS LLC, priority 2010, published 2012).
